molecular target: T1, Carbamoyl-phosphate synthase small chain (Escherichia coli (strain K12), UniProt P0A6F1); assay: Enzyme Assay; details: pH 7.5
T1 sequence (P0A6F1 whole entry): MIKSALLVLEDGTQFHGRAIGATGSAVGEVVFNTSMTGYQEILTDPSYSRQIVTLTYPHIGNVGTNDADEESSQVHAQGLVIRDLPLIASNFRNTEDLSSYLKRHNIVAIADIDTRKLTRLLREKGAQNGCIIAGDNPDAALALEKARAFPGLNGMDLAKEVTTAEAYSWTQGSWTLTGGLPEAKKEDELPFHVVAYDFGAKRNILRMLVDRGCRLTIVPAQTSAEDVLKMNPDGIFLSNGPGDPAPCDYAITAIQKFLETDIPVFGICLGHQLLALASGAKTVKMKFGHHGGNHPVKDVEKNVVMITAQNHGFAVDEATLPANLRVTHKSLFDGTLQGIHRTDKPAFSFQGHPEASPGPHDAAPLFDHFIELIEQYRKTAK
Description: The rate of carbamoyl phosphate synthesis was determined by use of a coupled enzyme assay with ornithine transcarbamoylase.

SMILES	Ki
NC(CCC(=O)O)C(=O)O (stereo not given) [Glutamine Analogue, 4]	28000 µM
COC(=O)CCC(N)C(=O)O (stereo not given) [Glutamine Analogue, 5]	25000 µM
NNC(=O)CCC(N)C(=O)O (stereo not given) [Glutamine Analogue, 3]	340 µM
NC(CCC(=O)NO)C(=O)O (stereo not given) [Glutamine Analogue, 2]	9 µM
NC(=O)CCC(N)C(=O)O (stereo not given) [Glutamine Analogue, 1]	54 µM

— BindingDB's records for doi:10.1021/bi00246a005 (Texas A&M University, 1991)
